Data on 6 compounds can be found in patent US4411890A, “Synthetic peptides having pituitary growth hormone releasing activity” (Beckman Instruments, Inc., priority 1981, dated 1983).

In experiment [1] the test system is Female rats of The CD-1 strain. The experiment can be described thus: In vivo growth hormone release study (subcutaneous injection, serum GH by RIA). Also on record: species or system rat. As to conditions: serum GH about 15 minutes after injection, 21 day old female rats, mean ± SEM. On the procedure:
Female rats of The CD-1 strain were housed in a constant temperature room at 24° C. with 14 hours light and 10 hours darkness. The rats were fed Purina brand rat chow ab libitum. All studies were started between 0800 and 1000 hours. Each female rat (21 days old; eight rats per dosage level shown in Table XXVI) was injected subcutaneously with a desired dosage of the peptide of Example 6. Approximately 15 minutes after injection, the rat was guillotined. A blood sample was collected from the guillotined rat. The blood sample was centrifuged and a serum sample was collected therefrom. Each serum sample was assayed for GH, in duplicate, by a standard radioimmunoassay (RIA).

Experiment [2] has as its system pituitaries. Nature of the experiment: In vitro growth hormone release study (incubated rat pituitaries, GH by RIA). The format is cell-based. The settings on record: GH released at I3, I4 (I5) minus P2, mean ± SEM. On the procedure:
Female rats of the CD-1 strain were housed in a constant temperature room at 24° C. with 14 hours light and 10 hours darkness. The rats were fed Purina brand rat chow ab libitum. All studies were started between 0800 and 1000 hours.
Pituitaries were removed from 20 day old female rats. In each polytetrafluoroethylene beaker (10 ml) was incubated two pituitaries at 36° C. in 1 ml of lactated Ringer's solution in a Dubnoff Shaker (90 cycles/min.). All medium in each beaker was removed each hour (e.g., P1, P2, I3, I4, I5) and then fresh medium was added back to each beaker. Each medium removed was assayed for GH, in duplicate, by a standard radioimmunoassay (RIA).
The growth hormone agonist of Example 1 was not added to the incubation mediums employed during the first hour of the incubation period (P1) or to the incubation mediums employed during the second hour of the incubation period (P2). The growth hormone agonist of Example 1 was dissolved in dimethylsulfoxide (DMSO; 10:1, agonist:DMSO), added to each incubation medium employed during the third hour of the incubation period (I3), to each medium employed during the fourth hour of the incubation period (I4), and, when performed, to each medium employed during the fifth hour of the incubation period (I5). The release of growth hormone was recorded as ΔGH and calculated by subtracting the amount of GH released at P2 from that released at I3, I4, and, when performed, I5. The agonist activity was determined from the release at I3, I4, and, when performed, I5. The mean of the ΔGH values obtained from the three beakers per dosage level measured at I3, I4, and, when performed, I5 are set forth in Table VI.

Setting [3] is: dosage 1.0 μg/ml serum (so in the source).
The mark [4] stands for this setting: dosage 3.0 μg/ml serum (so in the source).
The mark [5] stands for this setting: dosage 10.0 μg/ml serum (so in the source).
The mark [6] stands for this setting: dosage 1 ng/ml incubation medium.
[7] abbreviates: dosage 3 ng/ml incubation medium.
[8] abbreviates: dosage 10 ng/ml incubation medium.
Setting [9] is: dosage 30.0 μg/ml serum (so in the source).
The mark [10] stands for this setting: dosage 0.3 μg/ml serum (so in the source).

Where a SMILES comes first, the peptide text is derived from it.

Take `C[C@H](NC(=O)[C@@H](Cc1c[nH]c2ccccc12)NC(=O)[C@@H](N)Cc1c[nH]cn1)C(=O)N[C@@H](Cc1c[nH]c2ccccc12)C(=O)N[C@H](Cc1ccccc1)C(=O)N[C@@H](CCC(N)=O)C(N)=O` [H2 -His-D-Trp-Ala-Trp-D-Phe-Gln-NH2] (HELM PEPTIDE1{H.[dW].A.W.[dF].Q.[am]}$$$$V2.0): the ΔGH worked out at 1.4 ± 0.9 ng/ml subcutaneous in experiment [1] (setting [3]); 3.8 ± 2.1 ng/ml subcutaneous in experiment [1] (setting [4]); 32.1 ± 11.4 ng/ml subcutaneous in experiment [1] (setting [5]); 5 ± 136 ng/ml incubation medium in experiment [2] (setting [6]); 140 ± 168 ng/ml incubation medium in experiment [2] (setting [7]); 275 ± 66 ng/ml incubation medium in experiment [2] (setting [8]).

Take H2 -His-D-Trp-Ala-Trp-D-Phe-Lys-OH: the ΔGH in experiment [1] (setting [4]) is 76 ± 24 ng/ml subcutaneous; in experiment [1] (setting [5]) it was 119 ± 25 ng/ml subcutaneous; in experiment [1] (setting [9]), 226 ± 43 ng/ml subcutaneous; in experiment [2] (setting [6]), 467 ± 178 ng/ml incubation medium; in experiment [2] (setting [8]) it was 330 ± 167 ng/ml incubation medium; in experiment [2] (dosage 100 ng/ml incubation medium), 2,441 ± 353 ng/ml incubation medium.

In the case of “H2 -His-D-Trp-Ala-Trp-D-Phe-Lys-NHCH2 CH3”, the ΔGH in experiment [1] (setting [10]) was 13.0 ± 5 ng/ml subcutaneous; in experiment [1] (setting [5]), 119 ± 12 ng/ml subcutaneous; in experiment [2] (setting [6]), 726 ± 115 ng/ml incubation medium; in experiment [2] (setting [8]) it was 1,688 ± 300 ng/ml incubation medium.

Turning to “H2 -3-N-Me-His-D-Trp-Ala-Trp-D-Phe-Lys-NH2”, the ΔGH in experiment [1] (setting [10]) is 45.0 ± 10 ng/ml subcutaneous; in experiment [1] (setting [5]), 128 ± 16 ng/ml subcutaneous; in experiment [2] (setting [6]), 165 ± 136 ng/ml incubation medium; in experiment [2] (setting [8]), 1,857 ± 254 ng/ml incubation medium.

On to `C[C@H](NC(=O)[C@@H](Cc1c[nH]c2ccccc12)NC(=O)[C@@H](N)Cc1c[nH]cn1)C(=O)N[C@@H](Cc1c[nH]c2ccccc12)C(=O)N[C@H](Cc1ccccc1)C(=O)N[C@@H](CCCCN)C(N)=O` [H2 -His-D-Trp-Ala-Trp-D-Phe-Lys-NH2] (HELM PEPTIDE1{H.[dW].A.W.[dF].K.[am]}$$$$V2.0), for which the ΔGH in experiment [1] (setting [10]) is 6 ± 4 ng/ml subcutaneous; in experiment [1] (setting [3]) it was 36 ± 15 ng/ml subcutaneous; in experiment [1] (setting [4]) it was 66 ± 15 ng/ml subcutaneous; in experiment [1] (setting [5]), 100 ± 19 ng/ml subcutaneous; in experiment [1] (setting [9]) it was 122 ± 4 ng/ml subcutaneous; in experiment [2] (setting [6]), 955 ± 272 ng/ml incubation medium. In addition, the results for the ΔGH in experiment [2] (setting [7]), in experiment [2] (setting [8]) and in experiment [2] (dosage 30 ng/ml incubation medium) were 1,603 ± 305 ng/ml incubation medium, 2,244 ± 173 ng/ml incubation medium and 2,198 ± 358 ng/ml incubation medium, respectively.

As to `C[C@H](NC(=O)[C@@H](Cc1c[nH]c2ccccc12)NC(=O)[C@@H](N)Cc1c[nH]cn1)C(=O)N[C@@H](Cc1c[nH]c2ccccc12)C(=O)N[C@H](Cc1ccccc1)C(=O)N[C@@H](CCCNC(=N)N)C(N)=O` [H2 -His-D-Trp-Ala-Trp-D-Phe-Arg-NH2] (HELM PEPTIDE1{H.[dW].A.W.[dF].R.[am]}$$$$V2.0), the ΔGH was found to be 9.2 ± 3.4 ng/ml subcutaneous in experiment [1] (setting [3]); 32.2 ± 5.5 ng/ml subcutaneous in experiment [1] (setting [4]); 87.5 ± 31 ng/ml subcutaneous in experiment [1] (setting [5]); 31.1 ± 3.4 ng/ml subcutaneous in experiment [1] (setting [9]); 805 ± 152 ng/ml incubation medium in experiment [2] (setting [6]); 997 ± 249 ng/ml incubation medium in experiment [2] (setting [7]). The ΔGH in experiment [2] (setting [8]) was 2,064 ± 346 ng/ml incubation medium.
